{"source": "ChEMBL document CHEMBL3769336", "about": "“Discovery of a Chemical Tool Inhibitor Targeting the Bromodomains of TRIM24 and BRPF” (J Med Chem, 2016)", "key": {"[1]": {"biological_target": "T1, Peregrin (Homo sapiens, UniProt P55201)", "T1 sequence (P55201 whole entry)": "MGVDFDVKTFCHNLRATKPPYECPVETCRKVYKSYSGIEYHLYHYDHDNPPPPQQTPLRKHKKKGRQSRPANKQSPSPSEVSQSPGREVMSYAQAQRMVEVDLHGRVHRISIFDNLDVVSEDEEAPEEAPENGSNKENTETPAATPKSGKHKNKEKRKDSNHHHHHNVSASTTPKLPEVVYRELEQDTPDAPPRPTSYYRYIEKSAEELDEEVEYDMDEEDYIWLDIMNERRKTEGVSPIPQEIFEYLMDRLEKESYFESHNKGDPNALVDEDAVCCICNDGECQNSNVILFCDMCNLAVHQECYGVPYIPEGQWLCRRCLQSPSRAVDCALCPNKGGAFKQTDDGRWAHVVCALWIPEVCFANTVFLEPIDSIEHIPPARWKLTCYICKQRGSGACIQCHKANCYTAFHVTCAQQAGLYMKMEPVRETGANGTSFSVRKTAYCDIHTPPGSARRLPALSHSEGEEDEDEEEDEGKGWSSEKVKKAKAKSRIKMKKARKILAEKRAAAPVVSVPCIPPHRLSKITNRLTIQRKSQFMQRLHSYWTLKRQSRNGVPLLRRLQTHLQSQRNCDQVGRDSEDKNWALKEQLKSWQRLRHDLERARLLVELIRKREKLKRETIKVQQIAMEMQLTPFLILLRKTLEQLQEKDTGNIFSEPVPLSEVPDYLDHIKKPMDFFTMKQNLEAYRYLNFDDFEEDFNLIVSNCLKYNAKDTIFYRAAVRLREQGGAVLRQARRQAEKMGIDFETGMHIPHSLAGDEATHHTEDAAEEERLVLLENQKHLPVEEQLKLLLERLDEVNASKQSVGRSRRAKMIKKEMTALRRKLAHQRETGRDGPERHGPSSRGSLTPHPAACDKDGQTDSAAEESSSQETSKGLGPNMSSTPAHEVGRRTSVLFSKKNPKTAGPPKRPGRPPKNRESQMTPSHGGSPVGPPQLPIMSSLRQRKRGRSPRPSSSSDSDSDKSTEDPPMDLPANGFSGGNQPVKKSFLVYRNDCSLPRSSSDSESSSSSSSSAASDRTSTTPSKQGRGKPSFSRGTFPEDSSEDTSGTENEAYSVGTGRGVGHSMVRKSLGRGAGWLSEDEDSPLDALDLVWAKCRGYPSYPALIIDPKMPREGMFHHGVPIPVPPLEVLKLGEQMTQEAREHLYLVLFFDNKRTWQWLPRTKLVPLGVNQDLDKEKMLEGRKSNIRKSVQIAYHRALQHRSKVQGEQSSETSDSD", "assay": "Inhibition of BRPF1B (unknown origin) by Alpha Screen assay"}, "[2]": {"biological_target": "T1, Peregrin", "assay": "Binding affinity to BRPF1B (unknown origin) by isothermal titration calorimetry"}, "[3]": {"biological_target": "T2, Bromodomain-containing protein 1 (Homo sapiens, UniProt O95696)", "T2 sequence (O95696 whole entry)": "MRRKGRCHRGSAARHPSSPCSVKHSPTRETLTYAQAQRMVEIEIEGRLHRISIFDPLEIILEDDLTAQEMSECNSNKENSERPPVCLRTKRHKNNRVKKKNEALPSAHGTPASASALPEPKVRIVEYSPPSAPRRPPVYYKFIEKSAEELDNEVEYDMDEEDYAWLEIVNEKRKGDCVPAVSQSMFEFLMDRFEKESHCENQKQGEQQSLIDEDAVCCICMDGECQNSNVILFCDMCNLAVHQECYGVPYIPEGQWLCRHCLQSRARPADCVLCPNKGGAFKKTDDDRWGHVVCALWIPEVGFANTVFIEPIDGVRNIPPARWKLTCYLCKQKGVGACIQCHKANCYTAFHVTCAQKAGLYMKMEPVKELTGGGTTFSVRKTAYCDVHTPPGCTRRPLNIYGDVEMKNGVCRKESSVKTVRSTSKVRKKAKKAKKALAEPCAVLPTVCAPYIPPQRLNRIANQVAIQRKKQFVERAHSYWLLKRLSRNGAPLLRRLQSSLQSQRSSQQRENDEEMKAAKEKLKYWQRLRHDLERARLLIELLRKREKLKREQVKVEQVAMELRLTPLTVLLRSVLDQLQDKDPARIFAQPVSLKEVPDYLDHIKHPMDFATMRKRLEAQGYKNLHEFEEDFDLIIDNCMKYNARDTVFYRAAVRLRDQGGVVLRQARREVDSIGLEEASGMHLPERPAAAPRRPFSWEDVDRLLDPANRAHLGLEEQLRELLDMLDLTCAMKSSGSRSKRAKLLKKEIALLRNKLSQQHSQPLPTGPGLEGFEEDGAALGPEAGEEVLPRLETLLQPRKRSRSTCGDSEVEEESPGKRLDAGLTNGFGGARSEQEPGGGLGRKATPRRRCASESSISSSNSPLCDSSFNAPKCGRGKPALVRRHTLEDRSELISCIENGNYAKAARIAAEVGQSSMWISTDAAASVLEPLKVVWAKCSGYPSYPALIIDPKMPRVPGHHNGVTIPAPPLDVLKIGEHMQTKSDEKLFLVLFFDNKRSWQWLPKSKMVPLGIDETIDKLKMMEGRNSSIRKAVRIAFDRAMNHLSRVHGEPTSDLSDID", "assay": "Binding affinity to BRPF2 BRD1 (unknown origin) by isothermal titration calorimetry"}, "[4]": {"test_system": "MCF7", "assay": "Cytotoxicity against human MCF7 cells at 5x10'-5 M to 8x10'-8 M after 72 hrs by CellTiter-Glo assay", "assay_type": "functional, cell-based"}}, "note": "Active and inactive are the calls of the source. No cut-off for these calls is given here."}
{"smiles": "COc1ccc(Oc2cc3c(cc2NS(=O)(=O)c2ccc(OC)c(OC)c2)n(C)c(=O)n3C)cc1", "values": [{"measurement": "IC50", "setting": "[1]", "result": 340, "unit": "nM"}, {"measurement": "Kd", "setting": "[2]", "result": 137, "unit": "nM"}, {"measurement": "Kd", "setting": "[3]", "result": 1130, "unit": "nM"}, {"measurement": "Activity", "setting": "[4]", "result": "inactive"}]}
